Measured values reported in patent US20240417370A1, “LIPIDS FOR USE IN LIPID NANOPARTICLE FORMULATIONS” (Acuitas Therapeutics, Inc., priority 2023, published 2024).

Tested on: human IgG in mouse serum
Test: Immunoglobulin G (IgG) mRNA in vivo evaluation using lipid nanoparticle compositions
Parameters: species or system mice
Settings: LNP-formulated lipid, tail vein injection, μg IgG/mL serum 24 hours after administration; for Serum IgG @ 0.3 mg/kg: 0.3 mg mRNA/kg; for Serum IgG @ 1.0 mg/kg: 1.0 mg mRNA/kg
Protocol: A lipid of structure (I), DSPC, cholesterol and PEG-lipid are solubilized in ethanol at a molar ratio of 50:10:38.5:1.5 or 47.5:10:40.7:1.8. Lipid nanoparticles (LNP) are prepared at a total lipid to mRNA weight ratio of approximately 10:1 to 40:1. Briefly, the mRNA is diluted to 0.2 mg/mL in 10 to 50 mM citrate buffer, pH 4 to 6 or 10 to 25 mM acetate buffer, pH 4 to 6. Syringe pumps are used to mix the ethanolic lipid solution with the mRNA aqueous solution at a ratio of about 1:5 to 1:3 (vol/vol) with total flow rates above 15 mL/min. The ethanol is then removed, and the external buffer replaced with PBS by dialysis. Finally, the lipid nanoparticles are filtered through a 0.2 µm pore sterile filter.
Studies are performed in 6-8-week-old CD-1/ICR mice (Envigo, Charles River, or Inotiv) according to guidelines established by an institutional animal care committee (ACC) and the Canadian Council on Animal Care (CCAC). Varying doses of mRNA-lipid nanoparticle are systemically administered by tail vein injection and animals euthanized at a specific time point (e.g., 24 hours) post-administration. The whole blood is collected, and the serum subsequentially separated by centrifuging the tubes of the whole blood at 2000×g for 10 minutes at 4° C. and stored at −80° C. until use for analysis.
For immunoglobulin G (IgG) ELISA (Life Diagnostics Human IgG ELISA kit), the serum samples are diluted at 100 to 20,000 folds with 1× diluent solution. 100 μL of diluted serum is dispensed into anti-human IgG coated 96-well plate in duplicate alongside human IgG standards and incubated in a plate shaker at 150 rpm at 25° C. for 45 minutes. The wells are washed 5 times with 1× wash solution using a plate washer (400 μL/well). 100 μL of HRP conjugate is added into each well and incubated in a plate shaker at the same condition above. The wells are washed 5 times again with 1× wash solution using a plate washer (400 μL/well). 100 μL of TMB reagent is added into each well and incubated in a plate shaker at the same condition above. The reaction is stopped by adding 100 μL of Stop solution to each well. The absorbance is read at 450 nm (A450) with a microplate reader. The amount of human IgG in mouse serum is determined by plotting A450 values for the assay standard against human IgG concentration.
Representative compounds of the disclosure shown in Table 2 were formulated using the following molar ratio: 50% cationic lipid/10% distearoylphosphatidylcholine (DSPC)/38.5% Cholesterol/1.5% PEG lipid 2-[2-(ω-methoxy(polyethyleneglycol2000)ethoxy]-N,N-ditetradecylacetamide) or 47.5% cationic lipid/10% DSPC/40.7% Cholesterol/1.8% PEG lipid. Relative activity was determined by measuring luciferase expression in the liver 4 hours following administration via tail vein injection as described in Example 1 or by measuring the amount of human IgG in mouse serum as described in example 2. The activity was compared at a dose of 1.0 or 0.5 or 0.3 mg mRNA/kg and expressed as ng luciferase/g liver measured 4 hours after administration, as described in Example 1 or as μg IgG/mL serum measured 24 hours after administration, as described in Example 2. Compound numbers in Table 2 refer to the compound numbers of Table 1.

Structure (SMILES): CCCCCCCCCCN(CCCCCCCCCC)C(=O)CCCCCCCN(CCCCCCCC(=O)N(CCCCCCCCCC)CCCCCCCCCC)[C@H]1C[C@@H](O)C1 [(1S, 3S) I-10, 8,8′-(((1S,3S)-3-hydroxycyclobutyl)azanediyl)bis(N,N-didecyloctanamide)]
- Serum IgG @ 0.3 mg/kg: 27.62 ± 9.67 µg/mL
- Serum IgG @ 1.0 mg/kg: 187.67 ± 66.41 µg/mL

Structure (SMILES): CCCCCCCCCCN(CCCCCCCCCC)C(=O)CCCCCCCN(CCCCCCCC(=O)N(CCCCCCCCCC)CCCCCCCCCC)[C@@H]1CCC[C@@H](O)C1 [(1R, 3R) I-17, 8,8′-(((1R,3R)-3-hydroxycyclohexyl)azanediyl)bis(N,N-didecyloctanamide)]
- Serum IgG @ 0.3 mg/kg: 27.97 ± 3.37 µg/mL
- Serum IgG @ 1.0 mg/kg: 178.14 ± 33.27 µg/mL

Structure (SMILES): CCCCCCCCCCN(CCCCCCCCN(CCCCCCCC(=O)N(CCCCCCCCCC)CCCCCCCCCC)[C@H]1CC[C@H](O)CC1)C(=O)CCCCCCCCC [(1R, 4R) I-47, N-decyl-N-(8-((8-(didecylamino)-8-oxooctyl)((1r,4r)-4-hydroxycyclohexyl)amino)octyl)decanamide]
- Serum IgG @ 0.3 mg/kg: 16.24 ± 2.93 µg/mL

Structure (SMILES): CCCCCCCCCCN(CCCCCCCCCC)C(=O)CCCCCCCN(CCCCCCCC(=O)N(CCCCCCCCCC)CCCCCCCCCC)[C@H]1C[C@@H](CO)C1 [(1S, 3S) I-24, 8,8′-(((1S,3S)-3-(hydroxymethyl)cyclobutyl)azanediyl)bis(N,N-didecyloctanamide)]
- Serum IgG @ 0.3 mg/kg: 20.09 ± 5.90 µg/mL
- Serum IgG @ 1.0 mg/kg: 57.71 ± 10.58 µg/mL

Structure (SMILES): CCCCCCCCCCN(CCCCCCCCCC)C(=O)C(F)CCCCCCN(CCCCCCC(F)C(=O)N(CCCCCCCCCC)CCCCCCCCCC)[C@H]1CC[C@H](O)CC1 (stereo partly drawn) [(1R, 4R) I-49, 8,8′-(((1r,4r)-4-hydroxycyclohexyl)azanediyl)bis(N,N-didecyl-2-fluorooctanamide)]
- Serum IgG @ 0.3 mg/kg: 28.94 ± 13.21 µg/mL
- Serum IgG @ 1.0 mg/kg: 161.09 ± 11.20 µg/mL

Structure (SMILES): CCCCCCCCCCN(CCCCCCCCCC)C(=O)C(F)CCCCCCN(CCCCCCC(F)C(=O)N(CCCCCCCCCC)CCCCCCCCCC)CC[C@H]1C[C@@H](O)C1 (stereo partly drawn) [(1S, 3R) I-19, 8,8′-((2-((1S,3R)-3-hydroxycyclobutyl)ethyl)azanediyl)bis(N,N-didecyl-2-fluorooctanamide)]
- Serum IgG @ 0.3 mg/kg: 30.68 ± 8.05 µg/mL
- Serum IgG @ 1.0 mg/kg: 267.70 ± 45.90 µg/mL

Structure (SMILES): CCCCCCCCCCN(CCCCCCCCCC)C(=O)CCCCCCCN(CCCCCCCC(=O)N(CCCCCCCCCC)CCCCCCCCCC)[C@H]1CC[C@H](CO)CC1 [(1R, 4R) I-23, 8,8′-(((1R,4R)-4-(hydroxymethyl)cyclohexyl)azanediyl)bis(N,N-didecyloctanamide)]
- Serum IgG @ 0.3 mg/kg: 5.15 ± 1.83 µg/mL
- Serum IgG @ 1.0 mg/kg: 37.79 ± 6.41 µg/mL

Structure (SMILES): CCCCCCCCCCN(CCCCCCCCCC)C(=O)CCCCCCCCCN(CCCCCC(=O)N(CCCCCCCCCC)CCCCCCCCCC)[C@H]1CC[C@@H](O)CC1 [(15, 4S) I-61, N,N-didecyl-10-((6-(didecylamino)-6-oxohexyl)((1s,4s)-4-hydroxycyclohexyl)amino)decanamide]
- Serum IgG @ 0.3 mg/kg: 40.66 ± 9.70 µg/mL

Structure (SMILES): CCCCCCCCCCN(CCCCCCCCCC)C(=O)CCCCCCCN(CCCCCCCC(=O)N(CCCCCCCCCC)CCCCCCCCCC)[C@H]1C[C@H](CO)C1 [(1R, 3R) I-24, 8,8′-(((1R,3R)-3-(hydroxymethyl)cyclobutyl)azanediyl)bis(N,N-didecyloctanamide)]
- Serum IgG @ 0.3 mg/kg: 6.93 ± 2.48 µg/mL
- Serum IgG @ 1.0 mg/kg: 19.77 ± 5.43 µg/mL

Structure (SMILES): CCCCCCCCCCN(CCCCCCCCCC)C(=O)CCCCCCCN(CCCCCCCC(=O)N(CCCCCCCCCC)CCCCCCCCCC)C1CCC(O)CC1 (stereo not shown) [Compound I-9, 8,8′-((4-hydroxycyclohexyl)azanediyl)bis(N,N-didecyloctanamide)]
- Serum IgG @ 0.3 mg/kg: 35.77 ± 4.50 µg/mL

Structure (SMILES): C=CCCCCCCCCN(CCCCCCCCC=C)C(=O)CCCCCCCN(CCCCCCCC(=O)N(CCCCCCCCC=C)CCCCCCCCC=C)[C@H]1CC[C@@H](O)CC1 [(1S, 4S) I-53, 8,8′-(((1s,4s)-4-hydroxycyclohexyl)azanediyl)bis(N,N-di(dec-9-en-1-yl)octanamide)]
- Serum IgG @ 0.3 mg/kg: 81.56 ± 44.40 µg/mL

Structure (SMILES): CCCCCCCCCCN(CCCCCCCCCC)C(=O)CCCCCCCN(CCCCCCCC(=O)N(CCCCCCCCCC)CCCCCCCCCC)[C@H]1CCC[C@H]1O [(1S, 2R) I-15, 8,8′-(((1S,2R)-2-hydroxycyclopentyl)azanediyl)bis(N,N-didecyloctanamide)]
- Serum IgG @ 0.3 mg/kg: 33.97 ± 18.40 µg/mL
- Serum IgG @ 1.0 mg/kg: 225.79 ± 54.78 µg/mL

Structure (SMILES): CCCCCCCCCCN(CCCCCCCCCC)C(=O)CCCCCCCN(CCCCCCCC(=O)N(CCCCCCCCCC)CCCCCCCCCC)C1CCCC1O (racemic) [(rac)-(1RS, 2SR) I-48, 8,8′-(((1s,2r)-2-hydroxycyclopentyl)azanediyl)bis(N,N-didecyloctanamide)]
- Serum IgG @ 0.3 mg/kg: 43.32 ± 11.04 µg/mL
- Serum IgG @ 1.0 mg/kg: 161.75 ± 26.50 µg/mL

Structure (SMILES): CCCCCCCCCCCCN(CCCCCC)C(=O)CCCCCCCN(CCCCCCCC(=O)N(CCCCCC)CCCCCCCCCCCC)[C@H]1CC[C@@H](O)CC1 [(1S, 4S) I-52]
- Serum IgG @ 0.3 mg/kg: 40.24 ± 18.53 µg/mL

Structure (SMILES): CCCCCCCCCCN(CCCCCCCCCC)C(=O)CCCCCCCN(CCCCCCCC(=O)N(CCCCCCCCCC)CCCCCCCCCC)CC1CCC(O)C1 (stereo not shown) [Compound I-4, 8,8′-(((3-hydroxycyclopentyl)methyl)azanediyl)bis(N,N-didecyloctanamide)]
- Serum IgG @ 0.3 mg/kg: 32.39 ± 3.12 µg/mL
- Serum IgG @ 1.0 mg/kg: 155.20 ± 15.34 µg/mL

Structure (SMILES): CCCCCCCCCCN(CCCCCCCCCC)C(=O)CCCCCCCN(CCCCCCCC(=O)N(CCCCCCCCCC)CCCCCCCCCC)C1CC2(CC(O)C2)C1 (stereo not shown) [Compound I-36, 8,8′-((6-hydroxyspiro[3.3]heptan-2-yl)azanediyl)bis(N,N-didecyloctanamide)]
- Serum IgG @ 0.3 mg/kg: 25.76 ± 8.65 µg/mL
- Serum IgG @ 1.0 mg/kg: 171.89 ± 45.93 µg/mL

Structure (SMILES): CCCCCCCCCCN(CCCCCCCCCC)C(=O)CCCCCCCN(CCCCCCCC(=O)N(CCCCCCCCCC)CCCCCCCCCC)[C@H]1C[C@H](O)C1 [(1R, 3R) I-5, 8,8′-(((1R,3R)-3-hydroxycyclobutyl)azanediyl)bis(N,N-didecyloctanamide)]
- Serum IgG @ 0.3 mg/kg: 44.52 ± 9.89 µg/mL
- Serum IgG @ 1.0 mg/kg: 215.61 ± 28.80 µg/mL

Structure (SMILES): CCCCCCCCCCN(CCCCCCCCCC)C(=O)CCCCCCCN(CCCCCCCC(=O)NC(CCCCCCCCC)CCCCCCCCC)[C@H]1CC[C@@H](O)CC1 [(1S, 4S) I-58, N,N-didecyl-8-(((1s,4s)-4-hydroxycyclohexyl)(8-(nonadecan-10-ylamino)-8-oxooctyl)amino)octanamide]
- Serum IgG @ 0.3 mg/kg: 61.75 ± 11.64 µg/mL

Structure (SMILES): CCCCCCCCCCN(CCCCCCCCCC)C(=O)CCCCCCCN(CCCCCCCC(=O)N(CCCCCCCCCC)CCCCCCCCCC)[C@@H]1CCC[C@@H]1O [(1R, 2S) I-48, 8,8′-(((1r,2s)-2-hydroxycyclopentyl)azanediyl)bis(N,N-didecyloctanamide)]
- Serum IgG @ 0.3 mg/kg: 28.32 ± 8.81 µg/mL
